According to US7981903B2, “2-[2-{phenylamino}-1H-pyrrolo[2,3-D]pyrimidin-4-yl)amino] benzamide derivatives as IGF-1R inhibitors for the treatment of cancer” (GlaxoSmithKline LLC, priority 2007, dated 2011):

How the values were obtained:
[1] = molecular target: T1, human IGF1R (hIGF1R) (Homo sapiens, UniProt P08069); experiment: TR-FRET kinase assay of purified hIGF1R; type: biochemical; details: activated hIGF1R 0.5 nM, 10 μM ATP, values given as pIC50 category, read-out: IGF-1R pIC50 (converted)
T1 construct: containing amino acid residues 957-1367 of human IGF1R; made in house; host or cells: Sf9 cells (baculovirus)

[2] = molecular target: T2, human IR (hIR) (Homo sapiens, UniProt P06213); experiment: TR-FRET kinase assay of purified hIR; type: biochemical; details: activated hIR 0.5 nM, 10 μM ATP, values given as pIC50 category
T2 construct: containing amino acid residues 979-1382 of human IR; made in house; host or cells: Sf9 cells (baculovirus), same process as hIGF1R

[3] = tested on: Colo205; experiment: Inhibition of cell proliferation (CellTiter-Glo or InCell analyzer), Colo205; type: cell-based; details: Homo sapiens, COLO 205, 72 h / 3 days, values given as IC50 category
How it was run: In one

T1 sequence (P08069 957-1367): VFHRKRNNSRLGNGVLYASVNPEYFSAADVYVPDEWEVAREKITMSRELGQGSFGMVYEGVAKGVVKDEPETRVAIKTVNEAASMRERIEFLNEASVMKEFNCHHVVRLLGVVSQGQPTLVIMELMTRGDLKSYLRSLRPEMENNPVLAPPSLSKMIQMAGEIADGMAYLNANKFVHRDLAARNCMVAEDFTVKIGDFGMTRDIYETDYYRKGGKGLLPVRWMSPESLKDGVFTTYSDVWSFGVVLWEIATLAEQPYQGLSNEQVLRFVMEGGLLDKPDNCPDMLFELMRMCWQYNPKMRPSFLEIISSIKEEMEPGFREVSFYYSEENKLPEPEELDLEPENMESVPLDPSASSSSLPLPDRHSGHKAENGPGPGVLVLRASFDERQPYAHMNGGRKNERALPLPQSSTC
T2 sequence (P06213 979-1382): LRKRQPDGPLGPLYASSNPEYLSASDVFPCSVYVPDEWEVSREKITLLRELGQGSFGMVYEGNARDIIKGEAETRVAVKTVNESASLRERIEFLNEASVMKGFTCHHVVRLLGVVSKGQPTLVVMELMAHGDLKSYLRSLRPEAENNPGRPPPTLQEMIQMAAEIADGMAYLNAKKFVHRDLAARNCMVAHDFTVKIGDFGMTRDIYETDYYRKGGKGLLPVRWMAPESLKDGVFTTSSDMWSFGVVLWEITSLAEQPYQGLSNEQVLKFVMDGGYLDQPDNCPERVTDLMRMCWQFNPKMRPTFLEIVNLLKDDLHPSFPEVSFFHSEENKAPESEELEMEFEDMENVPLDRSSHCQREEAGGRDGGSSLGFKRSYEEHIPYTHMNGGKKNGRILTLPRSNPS

Structure (SMILES)	IC50 [1] [nM]	IC50 [2] [nM]	IC50 [3] [nM]
COc1cc(N2CCOCC2)ccc1Nc1nc(Nc2cc(F)ccc2C(N)=O)c2cc[nH]c2n1 [Example 83, 4-fluoro-2-[(2-{[2-(methyloxy)-4-(4-morpholinyl)phenyl]amino}-1H-pyrrolo[2,3-d]pyrimidin-4-yl)amino]benzamide]	1.26 to 3.98	1.26 to 3.98	> 1000
COc1ccc(N2CCN(C(C)C)CC2)cc1Nc1nc(Nc2ccccc2C(N)=O)c2cc[nH]c2n1 [Example 10, 2-[(2-{[5-[4-(1-methylethyl)-1-piperazinyl]-2-(methyloxy)phenyl]amino}-1H-pyrrolo[2,3-d]pyrimidin-4-yl)amino]benzamide]	1.26 to 3.98	1.26 to 3.98	< 250
CCCN1CCC(c2ccc(Nc3nc(Nc4cc(F)ccc4C(N)=O)c4cc[nH]c4n3)c(OC)c2)CC1 [Example 73, 4-fluoro-2-[(2-{[2-(methyloxy)-4-(1-propyl-4-piperidinyl)phenyl]amino}-1H-pyrrolo[2,3-d]pyrimidin-4-yl)amino]benzamide]	0.251 to 1	0.251 to 1	< 250
CCCN1CCC(COc2ccc(Nc3nc(Nc4cccc(F)c4C(N)=O)c4cc[nH]c4n3)c(OC)c2)CC1 [Example 206, 2-fluoro-6-({2-[(2-(methyloxy)-4-{[(1-propyl-4-piperidinyl)methyl]oxy}phenyl)amino]-1H-pyrrolo[2,3-d]pyrimidin-4-yl}amino)benzamide]	1.26 to 3.98	1.26 to 3.98	250 to 1000
COc1cc2c(cc1Nc1nc(Nc3cc(F)cc(F)c3C(N)=O)c3cc[nH]c3n1)CN(CCF)CC2 [Example 239, 2,4-difluoro-6-[(2-{[2-(2-fluoroethyl)-6-(methyloxy)-1,2,3,4-tetrahydro-7-isoquinolinyl]amino}-1H-pyrrolo[2,3-d]pyrimidin-4-yl)amino]benzamide]	1.26 to 3.98	1.26 to 3.98	> 1000
COc1cc(N2CCOC[C@@H]2C)ccc1Nc1nc(Nc2cccc(F)c2C(N)=O)c2cc[nH]c2n1 [Example 49, 2-fluoro-6-[(2-{[4-[(3S)-3-methyl-4-morpholinyl]-2-(methyloxy)phenyl]amino}-1H-pyrrolo[2,3-d]pyrimidin-4-yl)amino]benzamide]	1.26 to 3.98	1.26 to 3.98	< 250
CCCN1CCC=C(c2ccc(Nc3nc(Nc4cc(F)ccc4C(=O)N[C@@H](C)CC)c4cc[nH]c4n3)c(OC)c2)C1 [Example 87, 4-fluoro-2-[(2-{[2-(methyloxy)-4-(1-propyl-1,2,5,6-tetrahydro-3-pyridinyl)phenyl]amino}-1H-pyrrolo[2,3-d]pyrimidin-4-yl)amino]-N-[(1S)-1-methylpropyl]benzamide]	1.26 to 3.98	1.26 to 3.98	250 to 1000
CNC(=O)c1c(F)cccc1Nc1nc(Nc2cc3c(cc2OC)CCCN3C(=O)CN(C)C)nc2[nH]ccc12 [Example 212, 2-[(2-{[1-(N,N-dimethylglycyl)-6-(methyloxy)-1,2,3,4-tetrahydro-7-quinolinyl]amino}-1H-pyrrolo[2,3-d]pyrimidin-4-yl)amino]-6-fluoro-N-methylbenzamide]	1.26 to 3.98	1.26 to 3.98	250 to 1000
COc1cc(N2CCN(CC3CC3)CC2)ccc1Nc1nc(Nc2cc(F)ccc2C(N)=O)c2cc[nH]c2n1 [Example 81, 2-[(2-{[4-[4-(cyclopropylmethyl)-1-piperazinyl]-2-(methyloxy)phenyl]amino}-1H-pyrrolo[2,3-d]pyrimidin-4-yl)amino]-4-fluorobenzamide]	1.26 to 3.98	1.26 to 3.98	< 250
COc1cc2c(cc1Nc1nc(Nc3cccc(F)c3C(N)=O)c3cc[nH]c3n1)CCN2C(=O)CN(C)C [Example 197, 2-[(2-{[1-(N,N-dimethylglycyl)-6-(methyloxy)-2,3-dihydro-1H-indol-5-yl]amino}-1H-pyrrolo[2,3-d]pyrimidin-4-yl)amino]-6-fluorobenzamide]	1.26 to 3.98	0.251 to 1	< 250
COc1cc(N2CCC[C@H](O)C2)ccc1Nc1nc(Nc2cc(F)ccc2C(N)=O)c2cc[nH]c2n1 [Example 74, 4-fluoro-2-[(2-{[4-[(3S)-3-hydroxy-1-piperidinyl]-2-(methyloxy)phenyl]amino}-1H-pyrrolo[2,3-d]pyrimidin-4-yl)amino]benzamide]	0.251 to 1	0.251 to 1	< 250
CNC(=O)c1c(F)cc(Cl)cc1Nc1nc(Nc2cc3c(cc2OC)CCCN3C(=O)CN2CCCC2)nc2[nH]ccc12 [Example 174, 4-chloro-2-fluoro-N-methyl-6-[(2-{[6-(methyloxy)-1-(1-pyrrolidinylacetyl)-1,2,3,4-tetrahydro-7-quinolinyl]amino}-1H-pyrrolo[2,3-d]pyrimidin-4-yl)amino]benzamide]	1.26 to 3.98	1.26 to 3.98	250 to 1000
CCCN1CCCC(c2ccc(Nc3nc(Nc4cc(F)ccc4C(N)=O)c4cc[nH]c4n3)c(OC)c2)C1 (stereo not drawn) [Example 71, 4-fluoro-2-[(2-{[2-(methyloxy)-4-(1-propyl-3-piperidinyl)phenyl]amino}-1H-pyrrolo[2,3-d]pyrimidin-4-yl)amino]benzamide]	0.251 to 1	0.251 to 1	< 250
CNC(=O)c1c(F)cccc1Nc1nc(Nc2cc3c(cc2OC)CCN3C(=O)CN2CCCC2)nc2[nH]ccc12 [Example 139, 2-fluoro-N-methyl-6-[(2-{[5-(methyloxy)-1-(1-pyrrolidinylacetyl)-2,3-dihydro-1H-indol-6-yl]amino}-1H-pyrrolo[2,3-d]pyrimidin-4-yl)amino]benzamide]	1.26 to 3.98	1.26 to 3.98	250 to 1000
COc1cc2c(cc1Nc1nc(Nc3cc(F)cc(F)c3C(=O)NC(C)C)c3cc[nH]c3n1)N(C(=O)CN(C)C)CC2 [Example 153, 2-[(2-{[1-(N,N-dimethylglycyl)-5-(methyloxy)-2,3-dihydro-1H-indol-6-yl]amino}-1H-pyrrolo[2,3-d]pyrimidin-4-yl)amino]-4,6-difluoro-N-(1-methylethyl)benzamide]	1.26 to 3.98	1.26 to 3.98	> 1000
COc1cc2c(cc1Nc1nc(Nc3cccc(F)c3C(N)=O)c3cc[nH]c3n1)CN(C(C)C)CC2 [Example 236, 2-fluoro-6-[(2-{[2-(1-methylethyl)-6-(methyloxy)-1,2,3,4-tetrahydro-7-isoquinolinyl]amino}-1H-pyrrolo[2,3-d]pyrimidin-4-yl)amino]benzamide]	1.26 to 3.98	1.26 to 3.98	250 to 1000
COc1cc(N2CCC(N3CCN(S(C)(=O)=O)CC3)CC2)ccc1Nc1nc(Nc2cccc(F)c2C(N)=O)c2cc[nH]c2n1 [Example 113, 2-fluoro-6-({2-[(2-(methyloxy)-4-{4-[4-(methylsulfonyl)-1-piperazinyl]-1-piperidinyl}phenyl)amino]-1H-pyrrolo[2,3-d]pyrimidin-4-yl}amino)benzamide]	1.26 to 3.98	0.251 to 1	< 250
COc1cc(N2CCN(C(C)C)CC2)ccc1Nc1nc(Nc2cc(Cl)cc(F)c2C(N)=O)c2cc[nH]c2n1 [Example 93, 4-chloro-2-fluoro-6-[(2-{[4-[4-(1-methylethyl)-1-piperazinyl]-2-(methyloxy)phenyl]amino}-1H-pyrrolo[2,3-d]pyrimidin-4-yl)amino]benzamide]	1.26 to 3.98	1.26 to 3.98	250 to 1000
COc1cc(C2CCN(C(C)C)CC2)ccc1Nc1nc(Nc2cc(F)c(F)cc2C(N)=O)c2cc[nH]c2n1 [Example 97, 4,5-difluoro-2-[(2-{[4-[1-(1-methylethyl)-4-piperidinyl]-2-(methyloxy)phenyl]amino}-1H-pyrrolo[2,3-d]pyrimidin-4-yl)amino]benzamide]	0.251 to 1	0.251 to 1	< 250
CNC(=O)c1c(Nc2nc(Nc3cc4c(cc3OC)CCCN4C(=O)CN(C)C)nc3[nH]ccc23)ccc(F)c1F [Example 163, 6-[(2-{[1-(N,N-dimethylglycyl)-6-(methyloxy)-1,2,3,4-tetrahydro-7-quinolinyl]amino}-1H-pyrrolo[2,3-d]pyrimidin-4-yl)amino]-2,3-difluoro-N-methylbenzamide]	1.26 to 3.98	1.26 to 3.98	250 to 1000
COc1cc(N2CCC(N3CCN(CCF)CC3)CC2)ccc1Nc1nc(Nc2cccc(F)c2C(N)=O)c2cc[nH]c2n1 [Example 114, 2-fluoro-6-[(2-{[4-{4-[4-(2-fluoroethyl)-1-piperazinyl]-1-piperidinyl}-2-(methyloxy)phenyl]amino}-1H-pyrrolo[2,3-d]pyrimidin-4-yl)amino]benzamide]	1.26 to 3.98	1.26 to 3.98	< 250
CCNC(=O)c1c(F)cccc1Nc1nc(Nc2cc3c(cc2OC)CCN3C(=O)CN(C)C)nc2[nH]ccc12 [Example 126, 2-[(2-{[1-(N,N-dimethylglycyl)-5-(methyloxy)-2,3-dihydro-1H-indol-6-yl]amino}-1H-pyrrolo[2,3-d]pyrimidin-4-yl)amino]-N-ethyl-6-fluorobenzamide]	1.26 to 3.98	1.26 to 3.98	250 to 1000
